From patent US20250170212A1, “COMPOSITIONS AND METHODS OF TREATING AMYOTROPHIC LATERAL SCLEROSIS (ALS) AND RELATED DISORDERS” (BIOINCEPT, LLC, priority 2022, published 2025)

Tested on: IL-1α
Assay: Serum cytokine analysis, multiplex ELISA
Format: in vivo, mouse
Conditions: serum collected weekly; compared to Injury and mGRPs groups
Protocol: Samples were collected every week, starting from day of graft transplantation (day 0), 100 μl of blood from mouse tail. Blood was stored 1 h in room temperature, and overnight in +4° C. Serum was gently aspirated, and centrifuged 10 min with 2000 RPM to separate blood morphotic bodies. Purified serum was stored in −80° C. until further analysis. Multiplex ELISA 23-cytokine kit (M60009RDPD) was obtained from Bio-Rad (Bio-Plex Pro Mouse Cytokine 23-plex Assay #M60009RDPD, Hercules, Bio-Rad, CA, USA, RRID: AB_2857368) and performed according to instructions. 50 μl of diluted in sample diluent, 1:4 serum samples and diluted at range 1:10-1:20. Measurement standards were used, diluted 9 times according to the protocol and added at template plate. Vortexed beads were added to the assay 96-well plate. Plate was again washed 3 times with wash buffer, then from template plate, 50 μl of samples, standards and blank were transferred to measurement plate with multichannel pipette. Plate was sealed with tape and incubated 30 min. After this time, plate was washed 3 times. 25 μl of detection antibody was added to the wells with multichannel pipette. Plate was sealed and incubated for 30 min. and next washed 3 times using wash buffer. […] Beads were resuspended with 125 μl of assay buffer and analysis was performed with Bio Plex 200 reader.
All quantifications were performed including the manual cell counts in a blinded manner. The NeuN and Ibal were counted as positive cells in the ROI (see above) as previously reported. The number of cells was determined by unbiased counting of positive cells. […] Differences between groups were analyzed using a repeated measure ANOVA model with a fixed effect for the group, of the time and a random intercept for the mouse. In a second, more explorative, approach for each group the time when the physical activity was first measured below a certain threshold was determined. […] The clinically relevant threshold was determined according to previous observations and defined as value 0.9 for the Wire Test. […] The statistical significance at p<0.05 was then determined.

For `C=CC[C@@H]1/C=C(\C)C[C@H](C)C[C@H](OC)[C@H]2O[C@@](O)(C(=O)C(=O)N3CCCC[C@H]3C(=O)O[C@H](/C(C)=C/[C@@H]3CC[C@@H](O)[C@H](OC)C3)[C@H](C)[C@@H](O)CC1=O)[C@H](C)C[C@@H]2OC` [Tac, Tacrolimus, reference compound], the “peripheral IL-1α cytokine peak” value was “decreased IL-1α peak significantly”.
